Data as given in patent US8404677B2, “Kinase inhibitors” (Genosco, priority 2009, dated 2013).

Legend:
[1] = tested on: HEL cells expressing human JAK2 V617F; assay: Cell viability assay: JAK2 inhibition; assay type: cell-based; conditions: for IC50: Homo sapiens, 72-hour incubation
Experimental: Compounds of the invention were tested for cell viability effect on HEL cells. For cell viability assay, HEL cells expressing human JAK2 V617F were obtained from the American Type Culture Collection (ATCC, Manassas, Va.). This cell line was maintained with an Roswell Park Memorial Institute (RPMI) medium (HyClone™) containing 10 bovine calf serum (BCS; Hyclone™) supplemented iron. The HEL cells were seeded at 2×10^4 cells in 96 well culture plates, and serially diluted compound was then added. After a 72-hour incubation period at 37° C., Cell viability was measured using the ATPLite 1 step assay (Perkin-Elmer™) that is based on the quantification of ATP from viable cells. CellTiter Aqueous assay (Promega™) was also performed in parallel as an orthogonal assay. IC50 values were calculated using nonlinear regression and defined as the concentration needed for a 50 reduction in luminescence or absorbance treated versus untreated control cells (Prism™ Software).

truncated human LRRK2 = truncated human LRRK2 (Homo sapiens, UniProt Q5S007); assay: Inhibition of enzymatic kinase activity (LANCE Ulight); assay type: biochemical
Sequence of truncated human LRRK2 (Q5S007 1879-2138 limits assumed): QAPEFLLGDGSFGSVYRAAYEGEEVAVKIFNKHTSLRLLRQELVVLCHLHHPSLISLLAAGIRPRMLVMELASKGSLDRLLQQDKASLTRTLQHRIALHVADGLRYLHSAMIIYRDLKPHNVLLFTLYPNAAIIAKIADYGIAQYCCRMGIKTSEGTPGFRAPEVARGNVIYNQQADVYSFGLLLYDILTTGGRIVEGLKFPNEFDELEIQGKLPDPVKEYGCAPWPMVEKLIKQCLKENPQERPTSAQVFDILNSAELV
Experimental: (§1) Inhibition of Enzymatic SYK, ZAP70, PYK2, FAK, PIM1, RET, FLT3, JAK2 and LRRK2 Kinase Activity
(§2) Compounds of the invention were initially diluted to 10 mM in 100% DMSO (CALBIOCHEM™) for storage and made into kinase buffer solution to create a compound concentration ranging from 1 uM and 10 uM. Serial dilutions of compounds of the invention were dispensed into a 96-well plate (GREINER BIOSCIENCES™) at 6 μL each. Purified full-length human SYK, ZAP70, PIM1, PYK2 and truncated human FAK, RET, FLT3, JAK2, and LRRK2 (CARNA BIOSCIENCES™) were diluted in kinase buffer and added to the compound solutions and pre-incubated for 30 minutes at room temperature (1 hour for PYK2). […] The reaction mixture was incubated for 1 hour (2 hours for PYK2). Following the incubation, the stop solution made with EDTA, water, and Lance detection buffer ([…]™) was added (12 μL each) to stop phosphorylation.

[2] = tested on: SN4741 cells transfected with vector; assay: Neuroprotection from LRRK2-mediated dopaminergic cell death (H2O2, crystal violet); assay type: cell-based, murine; conditions: 100 μM hydrogen peroxide
Experimental: (§3) SN4741, a murine dopaminergic cell line were cultured in DMEM containing 10 FBS at 37° C., respectively. SN4741 cells (1.5×10^4/well) were seeded in 48 well plates 1 day before transient transfection with 1 μg of the pcDNA3.1 plasmids of either vector, LRRK wildtype cDNA, LRRK G2019S cDNA, by standard CaCl2 precipitation. Two days after transfection, cells were treated with 100 μM hydrogen peroxide for 1 day and cell viability was measured by crystal violet assay. For compound treatment, the test compounds were added at 0.05 μM, 0.5 μM and 5 μM and the cells were incubated for 1 hour prior to the addition of hydrogen peroxide.
(§4) SN4741 cells were transfected with plasmids containing the LRRK2 wild-type or G2019S and incubated them for 2 days followed by addition of 100 μM of hydrogen peroxide for 24 h to sensitize them to oxidative stress. Cell survival was assessed using the crystal violet.

[3] = tested on: SN4741 cells overexpressing LRRK2 wild-type; assay: as above; assay type: cell-based, murine; conditions: for Percent Cell Death: LRRK2 WT, 100 μM hydrogen peroxide
Experimental: as §3, §4

[4] = tested on: SN4741 cells overexpressing LRRK2 G2019S; assay: as above; assay type: cell-based, murine; conditions: for Percent Cell Death: 100 μM hydrogen peroxide
Experimental: as §3, §4

truncated human FLT3 = molecular target: T1, truncated human FLT3 (Homo sapiens, UniProt P36888); assay: Inhibition of enzymatic kinase activity (LANCE Ulight); assay type: biochemical
T1 construct: truncated human FAK, RET, FLT3, JAK2, and LRRK2 (CARNA BIOSCIENCES™); purchased Carna Biosciences
T1 sequence (P36888 564-993 limits assumed): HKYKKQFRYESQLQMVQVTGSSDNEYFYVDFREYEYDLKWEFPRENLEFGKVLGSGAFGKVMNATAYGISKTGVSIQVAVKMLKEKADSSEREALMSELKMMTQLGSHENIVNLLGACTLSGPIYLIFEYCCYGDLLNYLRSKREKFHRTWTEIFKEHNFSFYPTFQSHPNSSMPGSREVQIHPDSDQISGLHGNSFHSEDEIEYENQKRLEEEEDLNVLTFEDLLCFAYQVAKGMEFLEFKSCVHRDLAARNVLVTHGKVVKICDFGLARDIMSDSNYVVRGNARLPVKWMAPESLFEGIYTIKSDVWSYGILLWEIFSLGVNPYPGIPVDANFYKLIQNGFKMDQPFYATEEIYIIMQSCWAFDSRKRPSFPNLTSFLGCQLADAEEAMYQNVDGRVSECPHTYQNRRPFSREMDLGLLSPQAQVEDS
Experimental: as §1, §2

truncated human RET = molecular target: T2, truncated human RET (Homo sapiens, UniProt P07949); assay: as above; assay type: biochemical
T2 construct: truncated human FAK, RET, FLT3, JAK2, and LRRK2 (CARNA BIOSCIENCES™); purchased Carna Biosciences
T2 sequence (P07949 658-1114 limits assumed): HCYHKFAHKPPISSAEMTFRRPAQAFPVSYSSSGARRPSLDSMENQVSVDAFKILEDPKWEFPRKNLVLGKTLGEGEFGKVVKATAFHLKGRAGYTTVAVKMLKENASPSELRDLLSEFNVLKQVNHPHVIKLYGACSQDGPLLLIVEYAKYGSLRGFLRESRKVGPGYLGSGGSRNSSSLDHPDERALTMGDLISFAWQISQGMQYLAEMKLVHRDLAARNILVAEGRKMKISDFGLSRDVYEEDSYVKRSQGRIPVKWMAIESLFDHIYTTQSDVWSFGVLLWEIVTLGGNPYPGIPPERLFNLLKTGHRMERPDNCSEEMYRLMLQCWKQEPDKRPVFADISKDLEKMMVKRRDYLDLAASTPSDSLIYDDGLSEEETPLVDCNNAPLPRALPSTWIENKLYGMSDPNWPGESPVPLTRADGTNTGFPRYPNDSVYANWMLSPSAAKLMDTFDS
Experimental: as §1, §2

truncated human JAK2 = molecular target: T3, truncated human JAK2 (Homo sapiens, UniProt O60674); assay: as above; assay type: biochemical
T3 construct: truncated human FAK, RET, FLT3, JAK2, and LRRK2 (CARNA BIOSCIENCES™); purchased Carna Biosciences
T3 sequence (O60674 826-1132 limits assumed): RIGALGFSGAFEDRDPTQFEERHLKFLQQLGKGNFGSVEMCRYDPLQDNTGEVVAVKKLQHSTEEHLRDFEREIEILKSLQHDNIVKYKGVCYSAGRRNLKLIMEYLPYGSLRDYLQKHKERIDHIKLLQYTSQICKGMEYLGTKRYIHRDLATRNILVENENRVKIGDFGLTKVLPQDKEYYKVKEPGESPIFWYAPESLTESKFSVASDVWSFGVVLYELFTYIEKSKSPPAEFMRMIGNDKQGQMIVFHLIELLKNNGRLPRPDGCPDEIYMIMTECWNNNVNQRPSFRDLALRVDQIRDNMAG
Experimental: as §1, §2

[5] = tested on: TNF-α release in THP-1 cells, LPS stimulation; assay: SYK independent TNF-α release assay (LPS stimulation); assay type: cell-based, human; conditions: Homo sapiens; LPS stimulation, At 1 μM, THP-1; read-out: Inhibition of TNF-α Release (percentage inhibition)
Experimental: For SYK independent TNF-α release assay (i.e., via lipopolysaccharide (LPS)-stimulation), THP-1 cells derived from human monocytic cells were obtained from the American Type Culture Collection (ATCC, Manassas, Va.). This cell line was maintained with an RPMI medium (GIBCO™) containing 10 fetal bovine serum (FBS, GIBCO™) and 0.05 mM 2-mercaptoethanol. The THP-1 cells were seeded at 1×10^5 cells/100 μL/well into 96-well culture plates, and treated with lipopolysaccharide (1 μg/ml), and serially diluted compound was then added. After an 18-hour incubation period at 37° C., supernatants were collected for the determination of the TNF-α level by ELISA, and the remaining cells were subjected to an MTT assay to determine the cytotoxic effects of compound.

## CNC(=O)c1cc(Oc2ccc(NC(=O)Nc3ccc(Cl)c(C(F)(F)F)c3)cc2)ccn1 [Sorafenib, reference compound]
[1]
  IC50: > 1000 nM

## O=c1[nH]ccc2nc(N3CCC(O)CC3)nc(Nc3cc(C(F)(F)F)cc(C(F)(F)F)c3)c12 [Compound 102, 4-(3,5-bis(trifluoromethyl)phenylamino)-2-(4-hydroxypiperidin-1-yl)pyrido[4,3-d]pyrimidin-5(6H)-one]
Truncated human LRRK2
  IC50: 325 nM
[2]; 0.05 uM
  Percent Cell Death: 50.0%
[2]; 0.5 uM
  Percent Cell Death: 54.4%
[2]; 5 uM
  Percent Cell Death: 50.5%
[3]; 0.05 uM
  Percent Cell Death: 49.9%
[3]; 0.5 uM
  Percent Cell Death: 55.3%
[3]; 5 uM
  Percent Cell Death: 46.5%
[3]; LRRK2 wild-type, at 0.05 uM and higher, vs vector, DMSO or H2O2 controls
  protective effects against LRRK2-associated cell death: increased protective effects
[4]; 0.05 uM
  Percent Cell Death: 54.9%
[4]; 0.5 uM
  Percent Cell Death: 56.0%
[4]; 5 uM
  Percent Cell Death: 44.0%
[4]; at 0.05 uM and higher, vs vector, DMSO or H2O2 controls
  protective effects against LRRK2-associated cell death: increased protective effects

## O=c1[nH]ccc2nc(N3CCC(CO)CC3)nc(Nc3ccc(N4CCS(=O)(=O)CC4)cc3)c12 [Compound 137]
Truncated human FLT3
  IC50: 12.4 nM
Truncated human RET
  IC50: 5.8 nM
Truncated human JAK2
  IC50: 1.6 nM
[1]
  inhibition level compared with Sorafenib: inhibition level greater than those exhibited by Sorafenib
  IC50: 89 nM

## O=c1[nH]ccc2nc(N3CCC(CO)CC3)nc(Nc3ccc(N4CCOCC4)cc3)c12 [Compound 139, 2-(4-(hydroxymethyl)piperidin-1-yl)-4-(4-morpholinophenylamino)pyrido[4,3-d]pyrimidin-5(6H)-one]
Truncated human FLT3
  IC50: 9.1 nM
Truncated human RET
  IC50: 4.1 nM
Truncated human JAK2
  IC50: 1.6 nM
[1]
  inhibition level compared with Sorafenib: inhibition level greater than those exhibited by Sorafenib
  times higher inhibition in IC50 than Sorafenib: about 10 time
  IC50: 152 nM

## C[C@@H]1C[C@H]2[C@@H]3CCC4=CC(=O)C=C[C@]4(C)[C@@]3(F)[C@@H](O)C[C@]2(C)[C@@]1(O)C(=O)CO [Dexamethasone, reference compound]
[5]
  inhibition at 1 µM: 68.4%
